Laboratory results taken from patent publication US20090069405A1, “TREATMENT OF CNS AND PAIN DISORDERS” (Valexfarm, Ltd., priority 2007, published 2009).

What was measured:
Assay type in all cases: in vivo
[1] = test system: mice; assay: Forced Swim Test
Experimental: Forced Swim Test. The test apparatus consisted of a clear plastic cylindrical tank, 35 cm high and 25 cm in diameter, which was filled to a depth of 25 cm with tap water equilibrated overnight to room temperature (24° C.). A glass plate covered the top of the tank to prevent escape while the mouse was swimming. The water in the tank was replaced by fresh water at room temperature after three mice had been tested. To habituate the mouse, it was forced to swim in the tank for 15 min., then removed and dried by toweling and a heat lamp, and returned to its cage. Twenty-four hours later, the mouse was returned to the tank and allowed to swim for 5 min. while its swimming activity was recorded by a video camera, mounted above the tank. After this, the mouse was dried and returned to its cage. End points of the test were total time spent floating in an immobile position, without paddling of limbs (swimming) (Porsolt et al. Nature (1977) 266:730-732).

[2] = test system: mice; assay: Hot plate test; settings: peroral administration, 50 mg/kg, plate 55.0±0.5° C., 30 min after compound
Experimental: Hot plate test. Male mice weighing from 25 to 30 g were used in this test. […] The surface of the plate was maintained at a temperature of 55.0±0.5° C. […] Time (in seconds) to either hind paw licking or jumping was recorded as pain response latency. To avoid the likelihood of tolerance of mice to hot plate, all mice were exposed to hot plate only once through the whole experiment. The mice were exposed to hot plate only once; either before or after injection of drug.

[3] = test system: mice; assay: Tail-flick test
Experimental: Tail-flick test. The tail-flick test, using a radiant heat source was carried out to study antinociception. Each mouse was placed in an acrylic tube and its tail was laid across a Nichrome™ wire coil, which was heated by the passage of an electric current. The intensity of the current was kept at 5 mA. All animals were screened for the tail-flick response. Only those showing a flick within 4 sec were included in the study. After 1 h of final dosing, the mice were submitted to three tail-flick tests.

[4] = test system: mice; assay: Formalin paw test; settings: formalin 4.5%, 20 μl, left hind paw, dose 30 mg/kg, compared to control
Experimental: Formalin paw test. The mice received an injection of formalin (4.5%, 20 μl) to the left hind paw. The irritation caused by the formalin injection elicits a characteristic biphasic behavioral response as quantified by the amount of time spent licking the injured paw. The first phase (˜5-10 minutes) represents direct chemical […], and the second phase (˜20-30 minutes) is thought to represent pain of neuropathic origin (Tjølsen A et al. Pain (1992) 51:5-17). The two phases are separated by a quiescent period in which behavior returns to normal. The effectiveness of test compounds to reduce the painful stimuli is assessed by counting the amount of time spent licking the injured paw in the two phases.

NC(=O)N1c2ccccc2C=Cc2ccccc21 [carbamazepine]
antidepressive effect (total time spent floating immobile) ([1]; 50 mg/kg): significant effect

CCCC(CCC)C(=O)[O-].[Na+] [sodium valproate]
antidepressive effect (total time spent floating immobile) ([1]; 250 mg/kg): significant effect

O=C1CNC(=O)/C1=C\NCc1ccccc1 [tetramic derivative of the invention]
analgesic effect (pain response latency, hot plate) [2]: analgesic effect | analgesic effect (tail-flick) compared to phenytoin and valproate ([3]; highest dose tested 500 mg/kg, versus phenytoin 100 mg/kg and valproate 500 mg/kg): relatively better analgesic effect | analgesic effect (tail-flick) ([3]; peroral administration, 1 h after final dosing): analgesic effect | reduction in pain score in the chronic phase [4]: 5% | antidepressive effect (total time spent floating immobile) ([1]; 100 mg/kg): significant antidepressive effect
